{
  "source": "patent US12208159B2",
  "about": "“Compositions, methods and kits for treating a contact lens” (University of Houston System, priority 2016, dated 2025)",
  "key": {"[1]": {"assay": "Time course release of individual compounds from contact lenses", "type": "physicochemical", "details": "Comfilcon A", "description": "The modified Comfilcon A lenses are placed into individual wells of a 24 well plate with 1 mL PBS in each well at room temperature. The PBS solution is replaced with fresh PBS every hour for up to 8 h or 15 h, or every 10 min for 2 h or 6 h. The amount of fluorescent compound released into the collected PBS aliquots is quantified spectrophotometrically based on the above standard curve. The amount of F-Cip released into the collected PBS aliquots is quantified using LC-MS (LCQ Deca XP plus with Surveyor LC, Thermo Fisher, Waltham, MA) with electrospray ionization in positive ion mode. Samples ([…] each) are loaded onto the analytical column at […] (Kinetex XB-C18, 2.×50 mm, […], Phenomenex) with the following gradient: 0-3 min, 10-75% (B); 3-7.5 min, 75-91% (B). The mobile phase consists of (A) water containing 0.1% formic acid and (B) acetonitrile containing 0.1% formic acid. Mass spectrometric parameters are as follows: 250° C. capillary temperature, 45 units sheath gas, 10 units aux gas and 4.5 kV spray voltage. […]"}, "[2]": {"assay": "Loading of molecules into commercial contact lenses (Comfilcon A)", "type": "physicochemical", "description": "(§1) Briefly, commercial lenses are individually immersed in wells of a 24 well plate, each containing 1 mL PBS solution of FITC-F ([…]), FITC ([…]), Cip (100 mM) or F-Cip (100 mM), and incubated for 18 h. Then the lenses are washed with PBS three times for 5 min each. All incubation and wash solutions are collected and the amount of each compound is quantified by spectrophotometry. Standard curves are generated with seven standard samples with known concentrations for each individual compound of interest. Specifically, fluorescent compounds FITC and FITC-F are quantified by fluorescence emission at 520 nm (lex. 485 nm), and Cip and F-Cip are quantified by absorbance at 275 nm. The amount of each compound in the above collected solutions is then measured with the standard curve. The amount of the compound incorporated into lenses was determined by subtracting the amount in solution from the total amount added initially.\n(§2) Commercial lenses of the above 4 types were removed from blister packs, and blotted gently to remove excess solution. Contact lenses were placed individually into glass vials and immersed in 1 mL of FITC-C8F15 or FITC solution (15.6 μM in phosphate buffered saline) for 24 hours at room temperature. At the end of incubation, lenses were washed three times using phosphate buffered saline. […]"}, "[3]": {"assay": "Loading of molecules into commercial contact lenses (Lotrafilcon B)", "type": "physicochemical", "details": "24 hours at room temperature, listed as FITC-C8F15", "description": "as §1, §2"}, "P. aeruginosa 19660 [4]": {"tested_on": "P. aeruginosa 19660", "assay": "Ex vivo porcine eye infection model, antimicrobial activity of loaded contact lenses", "set-up": "species or system Pseudomonas aeruginosa (porcine eyes)", "details": "Comfilcon A lenses modified with the compound, on infected scratched porcine eyes, 12 h", "experimental": "Upon arrival, eyelids and connective tissues are removed and the porcine eyes are sanitized using 5% penicillin/streptomycin (Sigma-Aldrich, St. Louis, MO) for 1 h followed by washing thrice with PBS. Six scratch wounds with a 3×3 crosshatch pattern of length about 1 cm are created on each cornea using a 27G needle. The eyes are placed into holders and 100 ml of bacterial solution containing 10^6 CFU (see “Antibacterial activity of F-Cip” section discussed above) applied to each cornea. The eyes are left at room temperature in a biosafety cabinet for 5 h. After rinsing with 10 mL of PBS, control and modified Comfilcon A contact lenses are placed individually onto the eyes. […] One eye without scratches but incubated with bacteria served as an additional control. A custom-made apparatus is used to flow culture medium over the surface of the porcine eyes. […] Then 100 ml of the bacterial suspension from each sample was taken out and added into a 96-well plate in triplicate, and absorbance at 620 nm was measured and plotted as percentage of bacterial growth inhibition compared to the corneas infected with bacteria but without any treatments. […]"}, "P. aeruginosa 19660 [5]": {"tested_on": "P. aeruginosa 19660", "assay": "In vitro antimicrobial activity of F-Cip-loaded Comfilcon A contact lenses", "type": "cell-based, Pseudomonas aeruginosa", "details": "Comfilcon A lenses loaded with the compound"}, "[6]": {"tested_on": "Pseudomonas aeruginosa (PA) ATCC 19660", "assay": "Antibacterial activity of F-Cip (growth inhibition, absorbance at 620 nm)", "type": "cell-based", "details": "ATCC19660, P. aeruginosa ATCC 19660, 18 h at 37° C., n > 3", "description": "The strain is inoculated and grown at 37° C. for 18 h. The bacterial suspension ([…]) is added into 100 mL of nutrient broth and incubated for 2 h to reach a log growth phase. The resulting bacterial suspension is adjusted to a concentration of ˜10^7 cfu/mL and […] are placed into each well of a 96 well plate. Fifty microliters of F-Cip solution are added into the 96 well plate and incubated at 37° C. for 18 h. The inhibition of microbial growth is determined by measuring the absorbance at 620 nm."}, "[7]": {"assay": "Lens transparency after modification (light transmission)", "details": "Comfilcon A lenses embedded with the compound"}, "[8]": {"tested_on": "human telomerase corneal epithelial cells (hTCEpi)", "type": "cell-based", "description": "Telomerase modified human corneal epithelial cells were seeded into wells of a 96 well plate with […] KGM-2 medium (Lonza Ltd, Switzerland) and incubated at 37° C. until ˜80% confluence. […] Cells treated with 0.05% benzalkonium chloride (BAC) and without any treatment served as controls. The plate was incubated at 37° C. for 18 h, and cell viability was determined using a cell counting kit-8 assay. […] All lenses are taken out, and cell viability was determined using a cell counting kit-8 assay (Dojindo Molecular Technologies, Inc. Japan)."}},
  "note": "Values joined by “and” are separate entries in the source; they are usually repeats but may differ in a detail not shown here. Equal values may be shown once.",
  "data": [
    {"molecule": "O=C(O)c1cc(NC(=S)NCC(F)(F)C(F)(F)C(F)(F)C(F)(F)C(F)(F)C(F)(F)C(F)(F)F)ccc1-c1c2ccc(=O)cc-2oc2cc(O)ccc12", "note": "[Compound 6]", "values": [
      {"measurement": "duration of nearly linear release", "setting": "[1]; solution exchange rate 1 mL/h", "value": 6, "unit": "h"},
      {"measurement": "release profile", "setting": "[1]; solution exchange rate 1 mL/h", "value": "sustained profile"},
      {"measurement": "release rate", "setting": "[1]; solution exchange rate 1 mL/h", "value": 10.5, "unit": "% per hour"},
      {"measurement": "release reached at 15 h", "setting": "[1]; solution exchange rate 1 mL/h, 15 h", "value": "~90", "unit": "%"},
      {"measurement": "duration of sustained linear release", "setting": "[1]; solution exchange rate 6 mL/h", "value": 120, "unit": "min"},
      {"measurement": "release rate", "setting": "[1]; solution exchange rate 6 mL/h", "value": 26.5, "unit": "% per hour"},
      {"measurement": "time to reach release plateau", "setting": "[1]; solution exchange rate 6 mL/h", "value": 270, "unit": "min"},
      {"measurement": "amount attached relative to the amount of FITC attached", "setting": "[2]; Comfilcon A, 24 hours at room temperature, listed as FITC-C8F15", "value": "11 times and 9 times"},
      {"measurement": "amount attached relative to the amount of FITC attached", "setting": "[3]", "value": "6.5 times and 5 times"}
    ]},
    {"molecule": "O=C(O)c1cn(C2CC2)c2cc(N3CCNCC3)c(F)cc2c1=O", "note": "[Compound 12, Ciprofloxacin]", "values": [
      {"measurement": "release at plateau", "setting": "[1]; solution exchange rate 1 mL/h", "value": "~60", "unit": "%"},
      {"measurement": "release profile", "setting": "[1]; solution exchange rate 1 mL/h", "value": "typical burst release profile"},
      {"measurement": "time to reach release plateau (no more release)", "setting": "[1]; solution exchange rate 1 mL/h", "value": 3, "unit": "h"},
      {"measurement": "amount loaded onto lens", "setting": "[2]; Comfilcon A lenses, incubated 18 h in PBS solution", "value": "3.56±4.51", "unit": "nmol/lens"},
      {"measurement": "bacterial growth inhibition", "setting": "P. aeruginosa 19660 [4]", "value": "37.5±8.2", "unit": "%"},
      {"measurement": "growth inhibition", "setting": "P. aeruginosa 19660 [5]", "value": 35.2, "unit": "%"},
      {"measurement": "IC50", "setting": "[6]", "value": "0.13 ± 0.035", "unit": "µM"},
      {"measurement": "transmission profile compared with fresh unmodified lens", "setting": "[7]; between 200 nm and 800 nm", "value": "significantly overlap"},
      {"measurement": "Transmission of modified lenses", "setting": "[7]; between 400 nm and 750 nm", "value": "about 100%"}
    ]},
    {"molecule": "Benzalkonium chloride [Benzalkonium chloride (BAC)]", "values": [
      {"measurement": "cells killed", "setting": "[8]", "value": "about 100%"}
    ]},
    {"molecule": "fluorescein isothiocyanate [Compound 7]", "values": [
      {"measurement": "release at plateau", "setting": "[1]; solution exchange rate 1 mL/h", "value": "~60", "unit": "%"},
      {"measurement": "release profile", "setting": "[1]; solution exchange rate 1 mL/h", "value": "typical burst release profile"},
      {"measurement": "time to reach release plateau (no more release)", "setting": "[1]; solution exchange rate 1 mL/h", "value": "≤ 2", "unit": "h"},
      {"measurement": "time to reach release plateau", "setting": "[1]; solution exchange rate 6 mL/h", "value": "≤ 50", "unit": "min"}
    ]}
  ]
}
